ChEMBL document CHEMBL1201862, “PubChem BioAssay data set” (2004)
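Briefly, cells in 96-well plates were exposed to five compound concentrations for 48 h, and endpoints were estimated by linear interpolation. GI50 = concentration required for 50% inhibition of growth.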 Active and inactive are the calls of the source. Cut-off read from the data, not from the text of the source: active = GI50 up to about 1.1 µM and inactive = higher.

Key:
Test in all cases: DTP human tumour cell line panel, 48 h
IGROV-1 = tested on: IGROV-1
SF-295 = tested on: SF-295
SK-MEL-2 = tested on: SK-MEL-2
NCI/ADR-RES = tested on: NCI/ADR-RES
PC-3 = tested on: PC-3
HCT-116 = tested on: HCT-116
BT-549 = tested on: BT-549
OVCAR-3 = tested on: OVCAR-3
MDA-MB-435 = tested on: MDA-MB-435
NCI-H23 = tested on: NCI-H23
UO-31 = tested on: UO-31
HCT-15 = tested on: HCT-15
Hs-578T = tested on: Hs-578T
SNB-19 = tested on: SNB-19
TK-10 = tested on: TK-10
EKVX = tested on: EKVX
T47D = tested on: T47D
HT-29 = tested on: HT-29
NCI-H522 = tested on: NCI-H522

SMILES	GI50 (IGROV-1)	GI50 (SF-295)	GI50 (SK-MEL-2)	GI50 (NCI/ADR-RES)	GI50 (PC-3)	GI50 (HCT-116)	GI50 (BT-549)	GI50 (OVCAR-3)	GI50 (MDA-MB-435)	GI50 (NCI-H23)	GI50 (UO-31)	GI50 (HCT-15) [µM]	GI50 (Hs-578T)	GI50 (SNB-19)	GI50 (TK-10)	GI50 (EKVX)	GI50 (T47D)	GI50 (HT-29)	GI50 (NCI-H522)
O=[N+]([O-])c1ccccc1OCCOc1ccccc1[N+](=O)[O-]	> 100 µM (inactive)	> 100 µM (inactive)	> 100 µM (inactive)	> 100 µM (inactive)	> 100 µM (inactive)	> 100 µM (inactive)	> 100 µM (inactive)	> 100 µM (inactive)	> 100 µM (inactive)	> 100 µM (inactive)	> 100 µM (inactive)	> 100	> 100 µM (inactive)	> 100 µM (inactive)	> 100 µM (inactive)	> 100 µM (inactive)	> 100 µM (inactive)	> 100 µM (inactive)	> 100 µM (inactive)
COC(=O)C1=C(C(=O)OC)C2OC1c1cc3ccccc3cc12	5.01 µM (inactive)	18.8 µM (inactive)	15.4 µM (inactive)	10.8 µM (inactive)	15.2 µM (inactive)	1.74 µM (inactive)	5.47 µM (inactive)	2.88 µM (inactive)	7.38 µM (inactive)	5.96 µM (inactive)	1.54 µM (inactive)	2.18	18.2 µM (inactive)	18.7 µM (inactive)	5.2 µM (inactive)	6.07 µM (inactive)	2.61 µM (inactive)	6.3 µM (inactive)	1.3 µM (inactive)
CCOC(=O)CN1CC(C2=C(O)CN(CC(=O)OCC)C2=O)=CC1=O	> 100 µM (inactive)	> 100 µM (inactive)	> 100 µM (inactive)	> 100 µM (inactive)	> 100 µM (inactive)	> 100 µM (inactive)	> 100 µM (inactive)	> 100 µM (inactive)	> 100 µM (inactive)	> 100 µM (inactive)	> 100 µM (inactive)	> 100	> 100 µM (inactive)	> 100 µM (inactive)	> 100 µM (inactive)	> 100 µM (inactive)	> 100 µM (inactive)	> 100 µM (inactive)	> 100 µM (inactive)
CO/N=C1\CCC2(O)C3Cc4ccc(O)c5c4C2(CCN3CC2CC2)[C@H]1O5 (stereo partly drawn)	> 100 µM (inactive)	> 100 µM (inactive)	> 100 µM (inactive)	> 100 µM (inactive)	> 100 µM (inactive)	> 100 µM (inactive)	> 100 µM (inactive)	> 100 µM (inactive)	> 100 µM (inactive)	> 100 µM (inactive)	> 100 µM (inactive)	> 100	> 100 µM (inactive)	> 100 µM (inactive)	> 100 µM (inactive)	> 100 µM (inactive)	> 100 µM (inactive)	> 100 µM (inactive)	> 100 µM (inactive)
CCOC(=O)[C@@]1(C)CC(O)C(=O)N1C (stereo partly drawn)	> 100 µM (inactive)	> 100 µM (inactive)	> 100 µM (inactive)	> 100 µM (inactive)	> 100 µM (inactive)	> 100 µM (inactive)	> 100 µM (inactive)	> 100 µM (inactive)	> 100 µM (inactive)	> 100 µM (inactive)	> 100 µM (inactive)	> 100	> 100 µM (inactive)	> 100 µM (inactive)	> 100 µM (inactive)	> 100 µM (inactive)	> 100 µM (inactive)	> 100 µM (inactive)	> 100 µM (inactive)
O=C(C(=O)n1ccc2ccccc21)n1ccc2ccccc21	2.12 µM (inactive)	37.6 µM (inactive)	> 100 µM (inactive)	> 100 µM (inactive)	> 100 µM (inactive)	> 100 µM (inactive)	> 100 µM (inactive)	> 100 µM (inactive)	> 100 µM (inactive)	75.3 µM (inactive)	> 100 µM (inactive)	> 100	27.5 µM (inactive)	54.6 µM (inactive)	> 100 µM (inactive)	> 100 µM (inactive)	> 100 µM (inactive)	> 100 µM (inactive)	49.2 µM (inactive)
COc1cc2c(cc1OCCN1CCN(CCOc3cc4c(cc3OC)C(=O)N3CCC[C@H]3C=N4)CC1)N=C[C@@H]1CCCN1C2=O	33.5 µM (inactive)	8.83 µM (inactive)	26 µM (inactive)	> 100 µM (inactive)	25.9 µM (inactive)	29.5 µM (inactive)	21.5 µM (inactive)	25.9 µM (inactive)	20.8 µM (inactive)	17.1 µM (inactive)	35.8 µM (inactive)	> 64.1	41.6 µM (inactive)	35.5 µM (inactive)	23.8 µM (inactive)	> 96.6 µM (inactive)	25.4 µM (inactive)	36 µM (inactive)	12.1 µM (inactive)
